Measured values published in patent US11559575B2, “Multi-epitopic peptide compounds and vaccines against leishmaniasis” (INSTITUT DE RECHERCHE POUR LE DEVELOPPEMENT, priority 2018, dated 2023).
“Also recorded” adds a separate entry of the source.

System: HLA alleles of class II
Experiment: Affinity of epitopes for HLA alleles of class II
Assay type: binding, human
Conditions: for Concatenation affinity for the HLA alleles of class II: H2B-II peptides; for Concatenation affinity for the HLA alleles of class II / Affinity HLA alleles of class II: Table 1; for Affinity HLA alleles of class II: H2B-II core epitopes
Source text: The multiepitopic peptide compounds (24 to 40-mer), having a high affinity with a maximized number of HLA molecules of class I and of class II, such as the affinities for the alleles HLA of class I and HLA of class II of the epitopes in the peptides of the sequences SEQ ID NO: 22, 23, 65, 66, 69, 73, 77, 96, 97, 137, 138, and 157, 185, have a high immunoprevalent potential corresponding to an optimal vaccine coverage, in particular for the populations concerned. The degree of coverage of the peptide compounds of the invention show a very high added value compared with the peptides of the prior art.

KGRSENAIVTSRKVQ (Leishmania major) [SEQ ID NO: 106]
Concatenation affinity for HLA alleles of class II (LmlRAB-IIB peptides, Table 2): HLA-DRB1*01:01, HLA-DRB1*07:01,; also recorded: HLA-DRB1*11:01, HLA-DRB1*12:01,; also recorded: HLA-DRB5*01:01

KPKRSWNVYVGRSLK (Leishmania major) [SEQ ID NO: 25]
Concatenation affinity for the HLA alleles of class II: HLA-DRB5*01:01, HLA-DRB1*01:01, HLA-DRB1*07:01,; also recorded: HLA-DRB1*09:01, HLA-DRB1*15:01

KRSWNVYVGRSLKAI (Leishmania major) [SEQ ID NO: 27]
Concatenation affinity for the HLA alleles of class II: HLA-DRB1*01:01, HLA-DRB1*03:01, HLA-DRB1*04:01,; also recorded: HLA-DRB1*11:01, HLA-DRB1*13:02, HLA-DRB1*07:01,; also recorded: HLA-DRB1*09:01, HLA-DRB1*15:01, HLA-DRB5*01:01,; also recorded: HLA-DPA1*02:01/DPB1*01:01

LFTDVHYSE (Leishmania major) [SEQ ID NO: 124]
Concatenation affinity for HLA alleles of class II (LmlRAB-IIB core, Table 2): HLA-DRB1*03:01,; also recorded: HLA-DRB3*01:01,; also recorded: DPB1*04:01,; also recorded: HLA-DPA1*02:01/; also recorded: HLA-DPA1*03:01/; also recorded: DPB1*04:02

LFTDVHYSEVSAKTK (Leishmania major) [SEQ ID NO: 108]
Concatenation affinity for HLA alleles of class II (LmlRAB-IIB peptides, Table 2): HLA-DRB1*01:01, HLA-DRB1*04:01,; also recorded: HLA-DRB1*07:01, HLA-DRB1*09:01,; also recorded: HLA-DRB5*01:01, HLA-DPA1*01:03/DPB1*02:01,; also recorded: HLA-DPA1*01/DPB1*04:01,; also recorded: HLA-DPA1*02:01/HLA-DPB1*14:01

LHSVVGRHL (Leishmania major) [SEQ ID NO: 90]
Concatenation affinity for HLA alleles of class II (LmLRAB-IIA core, Table 2): HLA-DRB1*11:01; also recorded: HLA-DRB1*15:01; also recorded: HLA-DRB4*01:01; also recorded: HLA-DRB5*01:01; also recorded: HLA-DRB1*07:01; also recorded: HLA-DRB1*09:01

LHSVVGRHLSIVADH (Leishmania major) [SEQ ID NO: 81]
Concatenation affinity for HLA alleles of class II (LmLRAB-IIA peptides, Table 2): HLA-DRB1*07:01,; also recorded: HLA-DRB1*15:01,; also recorded: HLA-DRB5*01:01,; also recorded: HLA-DRB1*11:01,; also recorded: HLA-DRB1*09:01,

LKAINAQMS (Leishmania major) [SEQ ID NO: 45]
Affinity HLA alleles of class II: HLA-DRB1*04:05,; also recorded: HLA-DRB1*07:01,; also recorded: HLA-DRB1*08:02,; also recorded: HLA-DRB1*09:01,; also recorded: HLA-DRB1*11:01,; also recorded: HLA-DRB4*01:01,; also recorded: HLA-DRB5*01:01

LKAINAQMSMSHRTM (Leishmania major) [SEQ ID NO: 38]
Concatenation affinity for the HLA alleles of class II: HLA-DRB1*07:01, HLA-DRB1*04:01, HLA-DRB1*04:05,; also recorded: HLA-DRB1*09:01, HLA-DRB1*11:01, HLA-DRB1*15:01,; also recorded: HLA-DRB5*01:01, HLA-DRB1*01:01, HLA-DRB4*01:01,

MIRDLDFSN (listed as Leishmania infantum) [SEQ ID NO: 176]
Concatenation affinity for HLA alleles of class II (PSA KC-2.7 core, Table 3): HLA-DRB1*03:01,; also recorded: HLA-DRB1*04:01,; also recorded: HLA-DRB1*04:05,; also recorded: HLA-DRB1*08:02

MPSGSDYSHSMIRDL (listed as Leishmania infantum) [SEQ ID NO: 163]
Concatenation affinity for HLA alleles of class II (PSA KC-2.7 peptides, Table 3): HLA-DRB1*04:05, HLA-DRB1*07:01,; also recorded: HLA-DRB1*09:01, HLA-DRB5*01:01

NAIVTSRKV (Leishmania major) [SEQ ID NO: 125]
Concatenation affinity for HLA alleles of class II (LmlRAB-IIB core, Table 2): HLA-DRB1*07:01

NAIVTSRKVQEEVFD (Leishmania major) [SEQ ID NO: 109]
Concatenation affinity for HLA alleles of class II (LmlRAB-IIB peptides, Table 2): HLA-DRB1*03:01, HLA-DRB1*07:01,; also recorded: HLA-DRB1*08:02, HLA-DRB1*11:01,; also recorded: HLA-DRB1*12:01

NAQMSMSHR (Leishmania major) [SEQ ID NO: 46]
Affinity HLA alleles of class II: HLA-DRB1*01:01

NVYVGRSLKAINAQM (Leishmania major) [SEQ ID NO: 31]
Concatenation affinity for the HLA alleles of class II: HLA-DRB1*04:01, HLA-DRB4*01:01, HLA-DRB1*03:01,; also recorded: HLA-DRB1*04:05, HLA-DRB1*11:01, HLA-DRB1*01:01,; also recorded: HLA-DRB1*09:01, HLA-DRB1*15:01, HLA-DRB1*08:02

PKRSWNVYV (Leishmania major) [SEQ ID NO: 48]
Affinity HLA alleles of class II: HLA-DRB1*13:02,; also recorded: HLA-DRB1*15:01

PKRSWNVYVGRSLKA (Leishmania major) [SEQ ID NO: 26]
Concatenation affinity for the HLA alleles of class II: HLA-DRB5*01:01, HLA-DRB1*01:01, HLA-DRB1*11:01,; also recorded: HLA-DRB5*13:02, HLA-DRB5*07:01, HLA-DRB5*09:01,; also recorded: HLA-DRB5*15:01

PSGSDYSHSMIRDLD (listed as Leishmania infantum) [SEQ ID NO: 164]
Concatenation affinity for HLA alleles of class II (PSA KC-2.7 peptides, Table 3): HLA-DRB1*04:05, HLA-DRB1*07:01,; also recorded: HLA-DRB1*09:01, HLA-DRB5*01:01,; also recorded: LA-DPA1*02:01/DPB1*01:01

RHLSIVADHMPLHDQ (RHLSIVADHMPHLDQ; Leishmania major) [SEQ ID NO: 87]
Concatenation affinity for HLA alleles of class II (LmLRAB-IIA peptides, Table 2): HLA-DRB3*01:01,; also recorded: HLA-DRB1*03:01,; also recorded: HLA-DRB1*13:02

RKPKRSWNVYVGRSL (Leishmania major) [SEQ ID NO: 24]
Concatenation affinity for the HLA alleles of class II: HLA-DRB1*13:02, HLA-DRB1*01:01, HLA-DRB1*07:01,; also recorded: HLA-DRB1*09:01, HLA-DRB1*15:01
